Marks after values point to notes of the source that are not given here.
What was measured:
Corn seeds = experiment: Root & shoot growth analysis after seed soak, corn; type: in vivo; settings: seed soak 0.2 μg/ml, 12-14 days
Procedure: (§1) Peptides were tested for biological effects on the allocation of growth resources to the shoot (above ground) and root (below ground). Peptides were dissolved at 0.2, 2, or 5 μg/ml in a total volume of 100 ml deionized water. Corn or soybean seeds were then soaked for one hour in the peptide solution. Untreated control (UTC) plants were soaked in deionized water. Clear plastic 300 ml beverage cups (Solo®, Dart Container Corporation) were prepared for planting by marking the bottom with a cross, dividing the bottom into four equal quadrants. The cups were then filled with Sunshine Mix #1 soil (SunGro Horticulture) sieved to ¼″. 100 ml of water was added to the soil. Treated seeds were then planted by pressing the seed lightly into the top of the soil. The seeds were then covered with an additional 50 ml of loose soil. Seeds were allowed to germinate and grow for 12-14 days.
The length of the shoot was measured as the distance from the soil to the lightly stretched tip of the highest leaf for each plant. […]
Root growth was estimated by counting the number of times that a primary root crosses the quadrant marks on the bottom of the cup. These were often observed along the bottom circumference of the cup, although some were visible along the side of the container and were counted as if crossing a vertical extension of the quadrant line. […]

soybean seeds = experiment: Root & shoot growth analysis after seed soak, soy; type: in vivo; settings: for Root (root growth index, percentage increase over untreated control) / Shoot (shoot length, percentage increase over untreated control): soy, 12-14 days
Procedure: as §1
The length of the shoot was measured as the distance from the soil to the lightly stretched tip of the highest leaf for each plant. […] Stunting was defined as lacking a fully expanded true leaf at time of data collection or having an expanded true leaf judged by eye to be <½ the average leaf area of the treatment group. Generally, 30 seeds were planted per treatment group and 15-25 plants were used for data collection.
Root growth was estimated by counting the number of times that a primary root crosses the quadrant marks on the bottom of the cup. These were often observed along the bottom circumference of the cup, although some were visible along the side of the container and were counted as if crossing a vertical extension of the quadrant line. This number was divided by 4 to produce a root growth index.
Each number indicates the percentage increase over the untreated control values.

Soy plants = experiment: Growth tests after foliar spray, soy; type: in vivo
Procedure: Soy seeds (or corn seeds, as indicated) were planted in flats with 2 seeds per cell within the flat at a greenhouse facility. The seeds were allowed to germinate and the smaller plant is culled, leaving one plant per cell. Once the first true leaves are fully expanded and the second leaves are beginning to expand, the plants were initially measured for height. This was performed by stretching the highest leaf upward and measuring the distance to the soil. Peptides were dissolved in water at the indicated concentrations (Table 21 below). The plants were then treated with a foliar spray using widely available spray bottles until liquid was dripping from the leaves. Six flats of 14 plants each were treated per condition (peptide or control). Designated untreated control plants were sprayed with water. The plants were allowed to grow for 14 days. The height of the plants was again measured and compared to the original height to quantify growth. Finally, the plants were harvested by removing the shoots (all above-ground material). For some experiments, this was weighed upon harvesting to determine the fresh mass (including water weight). The shoots were then dried at 70° C. for 72 hours, and again weighed to determine dry biomass. Although this method uses a similar measure (growth) as in Example 3 above, the treatment method is different (seed soak vs. foliar spray). As a result, the experimental outcomes may diverge.

[1] = system: tobacco mosaic virus (TMV); experiment: Induction of resistance to tobacco mosaic virus in tobacco; type: in vivo; settings: for Effectiveness Covered (%) (decline in TMV lesions vs UTC, systemic response) / Effectiveness Uncovered (%) (decline in TMV lesions vs UTC, local response): TMV 3 days post-treatment, scored 3 days after inoculation
[2] = system: soy plants (leaf tissue discs); experiment: Peroxide response, ferric-xylenol orange assay on soy leaf discs; type: cell-based; settings: 0.5 ug/ml peptide, one hour, absorbance at 595 nm vs blank
Procedure: The ferric-xylenol orange complex assay for hydrogen peroxide (Gay et al., Analytical Biochemistry 273:149-55 (1999), which is hereby incorporated by reference in its entirety) was used to determine peroxide production by plant leaf tissue. Briefly, reagent A was prepared by mixing 10 mg of ferrous ammonium sulfate with 133 uL of sulfuric acid in a total volume of 1 mL with water. Reagent B was prepared by mixing 2 g of sorbitol with 9.34 mg of xylenol orange in 80 ml of water. 1M hydrochloric acid was slowly added until the solution turned yellow. The solution was then diluted with water to a total volume of 100 mL, and stored in a dark bottle at 4° C.
Leaves from either tobacco plants (plants grown to 6 true leaves) or soy plants (plants grown to 6 true leaves) were used for the assay. The leaf was first removed from the plant and placed on a paper towel. 0.5 cm leaf tissue circles were then removed from the leaf using a leather punch tool. These discs were then placed into the wells of a 96-well plate. […] of water was added to each disc. The plate was covered with parafilm and rested for 12 hours in the dark. The excess water was then removed and the wells washed with an additional 250 uL of water. The washes were then removed from the wells and replaced with 105 uL of a 0.5 ug/ml solution of peptide in water or water blank, generally in quadruplicate. Where peptide solubility was a problem, pH buffer was added to both the blank and peptide samples. Leaf discs were incubated with the peptides for one hour under fluorescent lighting. 50 ul of the solution from each leaf sample was removed to a new well for chemical analysis.
Just prior to analysis, reagents A and B were freshly mixed in a 1:100 ratio to produce the assay reagent. 200 ul of this mixture was added to each well containing 50 ul of leaf-treated solution. The plate was incubated in the dark for 20 minutes and the absorbance at 595 nm was detected. Results were analyzed using a two-tailed Student's T-test. The results were divided into several response classes. XR++ indicated a positive response with absorbance >0.05 units above the negative control and a Student's T-test p<0.05. XR+ indicated an absorbance <0.05 units above the blank and a Student's T-test p<0.05. XR weak indicated a response >0.02 units above the negative control with a p-value that was not significant. XR− indicated an absorbance within 0.02 units of the negative control. It should be noted that there can be significant biological variability in the peroxide response due to plant age, location of the disc within the leaf, and other factors. As a result, p-values from the T-test are a guide and not an absolute inclusion criterion.

[3] = soy, foliar spray 2.0 ug/ml, 14 days

| Sequence | Root (root growth index, percentage increase over untreated control) (Corn seeds) | Shoot (shoot length, percentage increase over untreated control) (Corn seeds) | shoot growth (Table 20) (soybean seeds; seed soak, p14a soy at 0.2 μg/ml) | Root (root growth index, percentage increase over untreated control) (soybean seeds; seed soak 2.0 μg/ml) | Shoot (shoot length, percentage increase over untreated control) (soybean seeds; seed soak 2.0 μg/ml) | Root (root growth index, percentage increase over untreated control) (soybean seeds; seed soak 5.0 μg/ml) | Shoot (shoot length, percentage increase over untreated control) (soybean seeds; seed soak 5.0 μg/ml) | growth, dry biomass and fresh mass (text summary of Table 21) (Soy plants; foliar spray) | Dry biomass increase (%) (Soy plants; [3]) | Growth increase (%) (Soy plants; [3]) | TMV response / effectiveness against TMV infection (summary of Table 22) ([1]; foliar spray) | Effectiveness Covered (%) (decline in TMV lesions vs UTC, systemic response) ([1]; spray 5.0 ug/ml) | Effectiveness Uncovered (%) (decline in TMV lesions vs UTC, local response) ([1]; spray 5.0 ug/ml) | Peroxide Response, Soy [2] | Effectiveness Covered (%) (decline in TMV lesions vs UTC, systemic response) ([1]; spray 10 ug/ml) | Effectiveness Uncovered (%) (decline in TMV lesions vs UTC, local response) ([1]; spray 10 ug/ml) |
| --- | --- | --- | --- | --- | --- | --- | --- | --- | --- | --- | --- | --- | --- | --- | --- | --- |
| SQGISEKQADQLLSQLIQALLQP (P4-14S-9A) | 4.8% | 3.9%* | increased shoot growth | 4.3% | 5.0% | 2.5% | 6.5%* | increases in growth and dry biomass | 10.8% | 11.9% | produced the best results | 86* % | 84* % | – | – | – |
| SQGISEKQDDQLLSQLIQALLQP (P4-14S-9D) | – | – | – | – | – | – | – | – | – | – | – | – | – | Weak+ | 52% | 89% |

— patent US10524472B2, “Elicitor peptides having disrupted hypersensitive response box and use thereof” (Plant Health Care, Inc., priority 2014, dated 2020)
